# Target: T1, interaction of ICAM-1 with the Leukointegrin CD18/CD11a (LFA-1) (Homo sapiens, UniProt P05107+P20701)
# T1 construct: endogenous in cells; sICAM-1: made in house, secreted from transfected CHO DUX cells
# Test: Assay to determine inhibition of LFA-1 binding to ICAM-1 (immunopurified LFA-1 on plate-bound sICAM-1, ELISA readout)
# Settings: not given
# T1 sequence (P20701 26-1170): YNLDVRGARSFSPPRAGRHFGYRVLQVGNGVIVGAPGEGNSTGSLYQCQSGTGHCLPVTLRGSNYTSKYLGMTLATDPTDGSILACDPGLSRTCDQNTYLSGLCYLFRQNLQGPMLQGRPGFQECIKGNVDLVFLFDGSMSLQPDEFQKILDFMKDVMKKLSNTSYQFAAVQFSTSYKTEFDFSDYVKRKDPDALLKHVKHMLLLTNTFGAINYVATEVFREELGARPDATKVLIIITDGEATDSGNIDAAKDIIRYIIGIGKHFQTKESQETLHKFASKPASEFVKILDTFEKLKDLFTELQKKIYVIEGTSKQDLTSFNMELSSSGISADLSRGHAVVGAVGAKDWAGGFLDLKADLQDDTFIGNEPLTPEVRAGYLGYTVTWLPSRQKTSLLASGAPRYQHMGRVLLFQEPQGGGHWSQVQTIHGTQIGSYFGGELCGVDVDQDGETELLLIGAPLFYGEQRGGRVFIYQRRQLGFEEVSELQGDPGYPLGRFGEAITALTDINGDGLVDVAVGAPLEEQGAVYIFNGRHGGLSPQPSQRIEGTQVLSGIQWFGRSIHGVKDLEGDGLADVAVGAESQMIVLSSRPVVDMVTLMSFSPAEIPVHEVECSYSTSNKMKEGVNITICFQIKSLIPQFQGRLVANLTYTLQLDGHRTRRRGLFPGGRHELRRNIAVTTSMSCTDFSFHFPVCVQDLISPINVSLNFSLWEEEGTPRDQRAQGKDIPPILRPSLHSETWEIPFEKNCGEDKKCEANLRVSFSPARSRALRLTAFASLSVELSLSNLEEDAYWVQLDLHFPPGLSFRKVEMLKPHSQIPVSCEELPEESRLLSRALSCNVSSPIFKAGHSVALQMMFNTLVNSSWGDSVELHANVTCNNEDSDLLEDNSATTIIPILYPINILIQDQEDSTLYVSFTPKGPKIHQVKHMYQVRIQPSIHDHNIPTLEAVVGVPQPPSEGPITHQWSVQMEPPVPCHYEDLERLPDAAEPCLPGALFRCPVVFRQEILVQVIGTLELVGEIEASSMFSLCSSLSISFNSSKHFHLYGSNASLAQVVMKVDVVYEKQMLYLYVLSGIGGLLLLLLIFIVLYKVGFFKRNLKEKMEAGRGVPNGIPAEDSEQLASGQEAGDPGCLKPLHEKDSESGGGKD
# T1 sequence (P05107 23-769): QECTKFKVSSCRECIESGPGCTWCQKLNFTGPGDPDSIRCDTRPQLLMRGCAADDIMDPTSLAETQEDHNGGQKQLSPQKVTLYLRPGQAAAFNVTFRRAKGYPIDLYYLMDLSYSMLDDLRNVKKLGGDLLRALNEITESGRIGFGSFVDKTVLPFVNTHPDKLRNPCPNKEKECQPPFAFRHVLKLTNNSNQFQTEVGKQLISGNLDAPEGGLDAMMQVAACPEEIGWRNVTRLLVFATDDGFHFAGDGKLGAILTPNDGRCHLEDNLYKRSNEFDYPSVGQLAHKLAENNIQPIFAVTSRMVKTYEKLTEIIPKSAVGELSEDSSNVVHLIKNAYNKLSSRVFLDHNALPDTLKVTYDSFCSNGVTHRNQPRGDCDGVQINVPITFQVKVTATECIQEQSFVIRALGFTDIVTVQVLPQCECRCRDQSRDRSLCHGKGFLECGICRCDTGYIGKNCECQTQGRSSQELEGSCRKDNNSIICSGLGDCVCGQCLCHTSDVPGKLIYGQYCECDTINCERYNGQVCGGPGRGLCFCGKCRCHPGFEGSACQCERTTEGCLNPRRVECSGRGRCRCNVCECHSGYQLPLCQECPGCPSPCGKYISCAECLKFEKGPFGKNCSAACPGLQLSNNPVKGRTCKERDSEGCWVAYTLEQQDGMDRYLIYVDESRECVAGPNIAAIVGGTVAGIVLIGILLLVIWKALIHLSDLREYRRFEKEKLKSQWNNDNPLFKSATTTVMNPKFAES
row,Kd [nM],SMILES
1,250,C[C@@]1(Cc2ccc(Br)cc2)C(=O)N(c2cc(Cl)cc(Cl)c2)C(=O)N1Cc1ccc(O)cc1 [Example 246]
2,2000,CCN1C(=O)N(c2cc(Cl)cc(Cl)c2)C(=O)[C@]1(C)Cc1ccc(Br)cc1 [Example 275]
3,1660,CN(C)C(=O)c1ccc(CC2(C)C(=O)N(c3cc(Cl)cc(Cl)c3)C(=O)N2C)cc1 (stereo not shown) [Example 258]
4,~2000,CC1(Cc2ccc(-c3ccc4ccccc4c3)cc2)NC(=O)N(c2cc(Cl)cc(Cl)c2)C1=O (stereo not shown) [Example 211]
5,1240,C[C@@]1(Cc2ccc(Br)cc2)C(=O)N(c2cc(Cl)cc(Cl)c2)C(=O)N1C(=O)[C@H](N)CO [Example 232]
6,800,CC1(Cc2ccccc2)C(=O)N(c2cc(Cl)cc(Cl)c2)C(=O)N1CCO (stereo not shown) [Example 218]
7,60,C[C@@]1(Cc2ccc(Br)cc2)C(=O)N(c2cc(Cl)cc(Cl)c2)C(=O)N1CCCCCP(=O)(O)O [Example 222]
8,540,Cc1cc(C)cc(-c2ccc(CC3(C)NC(=O)N(c4cc(Cl)cc(Cl)c4)C3=O)cc2)c1 (stereo not shown) [Example 210]
9,90,COc1cccc(-c2ccc(CC3(C)NC(=O)N(c4cc(Cl)cc(Cl)c4)C3=O)cc2)c1 (stereo not shown) [Example 214]
10,140,C[C@@]1(Cc2ccc(Br)cc2)C(=O)N(c2cc(Cl)cc(Cl)c2)C(=O)N1CCCCCP(=O)(O)O [Example 221]
11,2200,CN1C(=O)N(c2cc(Cl)cc(Cl)c2)C(=O)C1(CN)Cc1ccc(Br)cc1 (stereo not shown) [Example 230]
12,1030,CC1(Cc2ccccc2)C(=O)N(c2cc(Cl)cc(Cl)c2)C(=O)N1CCCCC(=O)O (stereo not shown) [Example 219]
13,3540,CN1C(=O)N(c2cc(Cl)cc(Cl)c2)C(=O)C1(C)Cc1ccc(C(=O)N2CCCCC2)cc1 (stereo not shown) [Example 259]
14,330,C[C@@]1(Cc2ccc(Br)cc2)C(=O)N(c2cc(Cl)cc(Cl)c2)C(=O)N1C1CCN(CP(=O)(O)O)CC1 [Example 236]
15,70,CC1(Cc2ccc(-c3cccc(F)c3)cc2)NC(=O)N(c2cc(Cl)cc(Cl)c2)C1=O (stereo not shown) [Example 212]

row,SMILES,Kd [nM]
1,C[C@@H](c1ccccc1)[C@@]1(C)C(=O)N(c2cc(Cl)cc(Cl)c2)C(=O)N1C [Example 270],650
2,CN1C(=O)N(c2cc(C(F)(F)F)cc(C(F)(F)F)c2)C(=O)[C@@]1(C)Cc1ccccc1 [Example 267],400
3,CN1C(=O)N(c2cc(C(F)(F)F)cc(C(F)(F)F)c2)C(=O)[C@]1(C)Cc1ccccc1 [Example 268],1590

# Same assay, conditions: at 160 μg/mL; read-out: LFA-1/ICAM Binding Assay percent inhibition
row,inhibition at 160 µg/mL [%],SMILES
1,47,O=C1NC(Cc2cccnc2)C(=O)N1c1cc(Cl)cc(Cl)c1 (stereo not shown) [Example 181]

# Same assay, conditions: values marked e approximated from incomplete dose-response curve
row,Kd [nM],SMILES
1,4050,C[C@]1(Cc2ccc(Br)cc2)NC(=O)N(c2cccc(Cl)c2)C1=O [Example 36]
2,280,COc1ccc(CC2(C)C(=O)N(c3cc(Cl)cc(Cl)c3)C(=O)N2C)cc1 (stereo not shown) [Example 166]
3,410,CN1C(=O)N(c2cc(Cl)cc(Cl)c2)C(=O)C1(C)Cc1ccc(C(=O)c2ccccc2)cc1 (stereo not shown) [Example 168]
4,500,Cc1ccccc1CC1(C)C(=O)N(c2cc(Cl)cc(Cl)c2)C(=O)N1C (stereo not shown) [Example 148]
5,2750,O=C1NC(Cc2ccsc2)C(=O)N1c1cc(Cl)cc(Cl)c1 (stereo not shown) [Example 26]
6,3840,O=C1NC(C(O)c2ccccc2)C(=O)N1c1cc(Cl)cc(Cl)c1 (stereo not shown) [Example 179]
7,430,CC1(Cc2ccc(C(F)(F)F)cc2)NC(=O)N(c2cc(Cl)cc(Cl)c2)C1=O (stereo not shown) [Example 51]
8,1280,CCOc1ccc(-c2ccc(CC3(C)NC(=O)N(c4cc(Cl)cc(Cl)c4)C3=O)cc2)cc1 (stereo not shown) [Example 207]
9,420,O=C1C(Cc2ccccc2)N(Cc2ccccc2)C(=O)N1c1cc(Cl)cc(Cl)c1 (stereo not shown) [Example 84]
10,410,CN(C)CCN1C(=O)N(c2cc(Cl)cc(Cl)c2)C(=O)[C@@]1(C)Cc1ccc(Br)cc1 [Example 108]
11,1910,COc1ccc(CN2C(=O)N(c3cc(Cl)cc(Cl)c3)C(=O)[C@@]2(C)Cc2ccc(Br)cc2)cc1 [Example 113]
12,1470,CC1(Cc2cccc(C(F)(F)F)c2)NC(=O)N(c2cc(Cl)cc(Cl)c2)C1=O (stereo not shown) [Example 53]
13,4380,O=C1NC(Cc2ccccc2)C(=O)N1c1cc(Cl)c(I)c(Cl)c1 (stereo not shown) [Example 71]
14,510,CC1(Cc2ccccc2)C(=O)N(c2cc(Cl)cc(Cl)c2)C(=O)N1C1CC1 (stereo not shown) [Example 150]
15,4560,CN1C(=O)N(c2cc(Cl)cc(Cl)c2)C(=O)C1(C)Cc1ccc2ccccc2n1 (stereo not shown) [Example 161]
16,1750,CC1(Cc2ccccc2Br)NC(=O)N(c2cc(Cl)cc(Cl)c2)C1=O (stereo not shown) [Example 48]
17,480,C[C@@]1(Cc2ccc(Br)cc2)C(=O)N(c2cc(Cl)cc(Cl)c2)C(=O)N1CCCCCCCl [Example 120]
18,810,COc1ccccc1CN1C(=O)N(c2cc(Cl)cc(Cl)c2)C(=O)[C@@]1(C)Cc1ccc(Br)cc1 [Example 126]
19,1150,Cc1cccc(C)c1CC1(C)NC(=O)N(c2cc(Cl)cc(Cl)c2)C1=O (stereo not shown) [Example 38]
20,6300,CC1(Cc2cccc(O)c2)NC(=O)N(c2cc(Cl)cc(Cl)c2)C1=O (stereo not shown) [Example 11]
21,1640,O=C(c1ccccc1)c1ccc(CC2NC(=O)N(c3cc(Cl)cc(Cl)c3)C2=O)cc1 (stereo not shown) [Example 1]
22,270,CC1(Cc2ccc(-c3ccc(Cl)s3)cc2)NC(=O)N(c2cc(Cl)cc(Cl)c2)C1=O (stereo not shown) [Example 199]
23,510,CN1C(=O)N(c2cc(Cl)cc(Cl)c2)C(=O)C1(C)Cc1cccc(Cl)c1 (stereo not shown) [Example 155]
24,480,CC1(Cc2cccc(Oc3ccccc3)c2)NC(=O)N(c2cc(Cl)cc(Cl)c2)C1=O (stereo not shown) [Example 56]

row,Kd [nM],SMILES
1,1050,Cc1cc(C)cc(CC2(C)C(=O)N(c3cc(Cl)cc(Cl)c3)C(=O)N2C)c1 (stereo not shown) [Example 162]
2,340,C[C@@H]1C(=O)N(c2cc(Cl)cc(Cl)c2)C(=O)[C@]1(C)Cc1ccc(Br)cc1 [Example 73]
3,3080,CC(N)(Cc1c[nH]c2ccccc12)C(=O)O (stereo not shown) [Example 25]
4,4310,CC(C)(C)C(=O)c1ccc(CC2(C)NC(=O)N(c3cc(Cl)cc(Cl)c3)C2=O)cc1 (stereo not shown) [Example 47]
5,~52000,CC1(Cc2csc3ccccc23)NC(=O)N(c2cc(Cl)cc(Cl)c2)C1=O (stereo not shown) [Example 27]
6,1590,CC1(Cc2ccc(C(C)(C)C)cc2)NC(=O)N(c2cc(Cl)cc(Cl)c2)C1=O (stereo not shown) [Example 52]
7,940,C[C@]1(Cc2ccc(-c3ccc(C(=O)O)cc3)cc2)NC(=O)N(c2cc(Cl)cc(Cl)c2)C1=O [Example 183]
8,260,C[C@@]1(Cc2ccc(Br)cc2)C(=O)N(c2cc(Cl)cc(Cl)c2)C(=O)N1Cc1ccccc1C#N [Example 114]
9,300,CC1(Cc2ccc(-c3cccs3)cc2)NC(=O)N(c2cc(Cl)cc(Cl)c2)C1=O (stereo not shown) [Example 195]
10,240,C[C@@]1(Cc2ccc(Br)cc2)C(=O)N(c2cc(Cl)cc(Cl)c2)C(=O)N1Cc1ccc(C#N)cc1 [Example 115]
11,270,C[C@@]1(Cc2ccc(Br)cc2)C(=O)N(c2cc(Cl)cc(Cl)c2)C(=O)N1Cc1cccc(C#N)c1 [Example 104]
12,690,CN1C(=O)N(c2cc(Cl)cc(Cl)c2)C(=O)C1(C)Cc1ccccc1 (stereo not shown) [Example 158]
13,520,CN(C)CCN1C(=O)N(c2cc(Cl)cc(Cl)c2)C(=O)C1(C)Cc1ccc(Br)cc1 (stereo not shown) [Example 99]
14,600,C[C@]1(Cc2c[nH]c3ccccc23)NC(=O)N(c2cc(Cl)cc(Cl)c2)C1=O [Example 42]
15,1480,CCC1(Cc2ccccc2)NC(=O)N(c2cc(Cl)cc(Cl)c2)C1=O (stereo not shown) [Example 30]
16,120,CCN1C(=O)N(c2cc(Cl)cc(Cl)c2)C(=O)C1(C)Cc1ccc(Br)cc1 (stereo not shown) [Example 105]
17,230,COCC1(Cc2ccc(Br)cc2)C(=O)N(c2cc(Cl)cc(Cl)c2)C(=O)N1C (stereo not shown) [Example 175]
18,1960,O=C1NC(C(c2ccccc2)c2ccccc2)C(=O)N1c1cc(Cl)cc(Cl)c1 (stereo not shown) [Example 13]
19,140,CC1(Cc2ccc(-c3ccccc3Cl)cc2)NC(=O)N(c2cc(Cl)cc(Cl)c2)C1=O (stereo not shown) [Example 191]
20,940,CC1(Cc2ccccc2)C(=O)N(c2cc(Cl)cc(Cl)c2)C(=O)N1C1CCCCC1 (stereo not shown) [Example 33]
21,360,CC1(Cc2ccc(OC(F)(F)F)cc2)NC(=O)N(c2cc(Cl)cc(Cl)c2)C1=O (stereo not shown) [Example 57]
22,260,CN1C(=O)N(c2cc(Cl)cc(Cl)c2)C(=O)C1Cc1ccc(C(=O)c2ccccc2)cc1 (stereo not shown) [Example 95]
23,490,CN(C)C(=O)CN1C(=O)N(c2cc(Cl)cc(Cl)c2)C(=O)[C@@]1(C)Cc1ccc(Br)cc1 [Example 107]
24,12100,CC(C)C1(Cc2ccccc2)NC(=O)N(c2cc(Cl)cc(Cl)c2)C1=O (stereo not shown) [Example 32]

row,SMILES,Kd [nM]
1,O=C1NC(Cc2ccccc2O)C(=O)N1c1cc(Cl)cc(Cl)c1 (stereo not shown) [Example 3],3000
2,O=C1NC(CCc2ccccc2)C(=O)N1c1cc(Cl)cc(Cl)c1 (stereo not shown) [Example 12],1750
3,O=C1NC(Cc2ccc(O)cc2)C(=O)N1c1cc(Cl)cc(Cl)c1 (stereo not shown) [Example 5],15400
4,O=C1NC(Cc2cccc(O)c2)C(=O)N1c1cc(Cl)cc(Cl)c1 (stereo not shown) [Example 4],9320
5,COc1ccc(CC2NC(=O)N(c3cc(Cl)cc(Cl)c3)C2=O)cc1 (stereo not shown) [Example 8],2860
6,COC(=O)c1ccc(CC2(C)C(=O)N(c3cc(Cl)cc(Cl)c3)C(=O)N2C)cc1 (stereo not shown) [Example 174],710
7,O=C1NC(c2ccccc2)C(=O)N1c1cc(Cl)cc(Cl)c1 (stereo not shown) [Example 6],12800
8,CC1(Cc2ccc(O)cc2)NC(=O)N(c2cc(Cl)cc(Cl)c2)C1=O (stereo not shown) [Example 9],7870

# Tested on: SKW3 cells
# Test: not given
# Settings: not given
row,SMILES,Cellular Toxicity Assay MTT LD50 [µM]
1,O=C1NC(Cc2ccccc2O)C(=O)N1c1cc(Cl)cc(Cl)c1 (stereo not shown) [Example 3],125 to 250
2,O=C1NC(CCc2ccccc2)C(=O)N1c1cc(Cl)cc(Cl)c1 (stereo not shown) [Example 12],125 to 250
3,C[C@@H](c1ccccc1)[C@@]1(C)C(=O)N(c2cc(Cl)cc(Cl)c2)C(=O)N1C [Example 270],250 to 500
4,O=C1NC(Cc2ccc(O)cc2)C(=O)N1c1cc(Cl)cc(Cl)c1 (stereo not shown) [Example 5],250 to 500
5,O=C1NC(Cc2cccc(O)c2)C(=O)N1c1cc(Cl)cc(Cl)c1 (stereo not shown) [Example 4],250 to 500
6,COc1ccc(CC2NC(=O)N(c3cc(Cl)cc(Cl)c3)C2=O)cc1 (stereo not shown) [Example 8],125 to 500
7,CN1C(=O)N(c2cc(C(F)(F)F)cc(C(F)(F)F)c2)C(=O)[C@@]1(C)Cc1ccccc1 [Example 267],250
8,CN1C(=O)N(c2cc(C(F)(F)F)cc(C(F)(F)F)c2)C(=O)[C@]1(C)Cc1ccccc1 [Example 268],250 to 500
9,O=C1NC(c2ccccc2)C(=O)N1c1cc(Cl)cc(Cl)c1 (stereo not shown) [Example 6],250 to 500
10,CC1(Cc2ccc(O)cc2)NC(=O)N(c2cc(Cl)cc(Cl)c2)C1=O (stereo not shown) [Example 9],250 to 500

# Reference: patent publication USRE38132E1, “Phenylpyrrolidines, phenylimidazolidines,3-phenyl-1,3-oxizolidines and 3-phenyl-1,3-thiazolidines and their use in the treatment of inflammatory disease” (Boehringer Ingelheim Pharmaceuticals, Inc., priority 1997, dated 2003)
